# Results published in US20240117005A1, “NOVEL BICYCLIC PEPTIDES” (THE COUNCIL OF THE QUEENSLAND INSTITUTE OF MEDICAL RESEARCH, priority 2021, published 2024).
# “Also recorded” adds a separate entry of the source. No end group written: not given here. *: point of attachment. Myristyl = CCCCCCCCCCCCCC*
# Experiments:
# [1] = molecular target: T1, complex of PDL1-PTM1 and IMPα1 (Homo sapiens, UniProt P52292); assay: DUOLINK proximity assay PDL1-PTM1 (PDL1-Ac) and IMPα1, MDA-MB-231; assay type: cell-based; conditions: for complex of PDL1-PTM1 and IMPα1 (DUOLINK): MDA-MB-231
# T1 construct: endogenous in cells; host or cells: MDA-MB-231
# Method: MDA-MB-231 cells were treated with DL-2; with concentrations ranging from 10 μM to 0.00975 μM. MDA-MB-231 cells were treated with DL-2 or Control and were permeabilized and were probed with the DUOLINK ligation assay. Cover slips were mounted on glass microscope slides with Prolong nucleus glass Antifade reagent (Life Technologies). PDL1-Ac and IMPα1 DUOLINK Digital images were analyzed using ImageJ software (ImageJ, NIH, Bethesda, MD, USA) and graphs represent the mean DOT Fluorescent Intensity in the nucleus or the cytoplasm compartments with significant differences calculated as per Kruskal-Wallis one-way ANOVA.
# MDA-MB-231 of were treated with vehicle control, DL-2-Batch 1, DL-2-Batch 2, or linear PDL1 peptide. Cells were permeabilised and were probed with the DUOLINK ligation assay. Cover slips were mounted on glass microscope slides with Prolong nucleus glass Antifade reagent (Life Technologies). PDL1Ac and IMPα1 DUOLINK Digital images were analysed using ImageJ software (ImageJ, NIH, Bethesda, MD, USA) and graphs represent the mean DOT Fluorescent Intensity in the nucleus or the cytoplasm compartments with significant differences calculated as per One-Way ANOVA comparison.
# (§1) (A) CT26, 4T1 or MDA-MB-231 Cells were treated with inhibitors for 72 hours. Following inhibition, media was removed and replaced with WST-1 cell proliferation reagent. Absorbance was recorded at 450 nm after 1 hour. Data represent a single independent experiment performed in triplicate. Results are graphed as mean +/− standard error (SE). […] PDL1Ac and IMPα1 DUOLINK Digital images were analysed using ImageJ software (ImageJ, NIH, Bethesda, MD, USA) and graphs represent the mean DOT Fluorescent Intensity in the nucleus or the cytoplasm compartments with significant differences calculated as per one-way ANOVA comparison. […] PDL1-unmodified and IMPα1 DUOLINK digital images were analysed using ImageJ software (ImageJ, NIH, Bethesda, MD, USA) and graphs represent the mean DOT fluorescent intensity in the nucleus or the cytoplasm compartments with significant differences calculated as per one-way ANOVA comparison. […]
# [2] = molecular target: T2, complex of PDL1 (unmodified) and IMPα1 (Mus musculus, UniProt P52293); assay: DUOLINK proximity assay PDL1 (unmodified) and IMPα1, CT26; assay type: cell-based
# T2 construct: endogenous in cells; host or cells: CT26
# Method: To characterize unmodified PDL1 and IMPα1, MDA-MB-231 cells or CT26 cells were treated with vehicle control, DL-2-batch 1, DL-2-batch 2 or linear PDL1. Cells were permeabilised and were probed with the DUOLINK ligation assay. Cover slips were mounted on glass microscope slides with ProLong nucblue glass Antifade reagent (Life Technologies). PDL1 (unmodified) and IMPα1 DUOLINK Digital images were analysed using ImageJ software (ImageJ, NIH, Bethesda, MD, USA) and graphs represent the mean DOT Fluorescent Intensity in the nucleus or the cytoplasm compartments with significant differences calculated as per One-Way ANOVA comparison.
# as §1, with “Following inhibition, media was removed and replaced with WST-1 cell proliferation reagent.” left out, “hour.” for “hour. Data represent a single independent experiment performed in triplicate. Results are graphed as mean +/− standard error (SE).”
Compound,complex of PDL1-PTM1 and IMPα1 (DUOLINK) [1],complex of PDL1 (unmodified) and IMPα1 (DUOLINK) [2],"IC50 ([1]; MDA-MB-231, 10 μM to 0.00975 μM) [nM]"
"LTFIFRLRKGRMMDVKK (Myristyl-LTFIFRLRKGRMMDVKK) [PDL1-L1, Myristyl- linear peptide, prototype]",unable to significantly prevent the complex; also recorded: no change,unable to significantly impact the complex; also recorded: no change,–
CCCCCCCCCCCCCC(=O)NC(C)C(=O)NC1CSCc2cc3cc(c2)CSC[C@H](NC(=O)[C@H](Cc2ccccc2)NC(=O)[C@H](C(C)CC)NC(=O)[C@H](Cc2ccccc2)NC(=O)[C@H]([C@@H](C)O)NC(=O)C(CC(C)C)NC1=O)C(=O)N[C@@H](CCCNC(C)=N)C(=O)N[C@@H](CC(C)C)C(=O)N[C@@H](CCCNC(=N)N)C(=O)N[C@@H](CCCCN)C(=O)NCC(=O)N[C@@H](CCCNC(=N)N)C(=O)NC(C(=O)N[C@@H](CCSC)C(=O)NC(CCSC)C(=O)N[C@@H](CC(=O)O)C(=O)NC(C(=O)N[C@@H](CCCCN)C(=O)NC(CCCCN)C(=O)O)C(C)C)CSC3 (mixture of isomers) [DL-2],abrogate the complex of PDL1 and IMPα1 in a dose dependent manner; also recorded: able to abrogate the complex,able to abrogate the complex,39
